Data from PubChem BioAssay AID192 (DTP/NCI, 2004).
Values joined by “and” are separate entries in the source; they are usually repeats but may differ in a detail not shown here. Equal values may be shown once. Toxic doses and inconclusive results are not listed. Peptide text beside a SMILES is read from it. * marks the point of attachment. Cbz = O=C(OCc1ccccc1)*

Tested on: BDF1 mice, B16 melanoma ip, median survival T/C
Test: NCI In Vivo Anticancer Drug Screen. Data for tumor model B16 Melanoma (intraperitoneal) in B6D2F1 (BDF1) mice
Conditions: endpoint: median survival time, higher = longer survival
Procedure, shortened: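 Antitumor activity is assessed in mice bearing a transplanted tumor, with survival or tumor size compared against vehicle-dosed controls and expressed as T/C.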

[1] = dose: 25.0 mg/kg/injection, schedule: Q01DX009 (ip), vehicle: Klucel (hydroxypropylcellulose) (HPC)
[2] = dose: 50.0 mg/kg/injection, schedule: Q01DX009 (ip), vehicle: Klucel (hydroxypropylcellulose) (HPC)
[3] = dose: 100.0 mg/kg/injection, schedule: Q01DX009 (ip), vehicle: Klucel (hydroxypropylcellulose) (HPC)
[4] = dose: 12.5 mg/kg/injection, schedule: Q01DX009 (ip), vehicle: saline
[5] = dose: 6.25 mg/kg/injection, schedule: Q01DX009 (ip), vehicle: saline with Tween-80
[6] = dose: 12.5 mg/kg/injection, schedule: Q01DX009 (ip), vehicle: saline with Tween-80
[7] = dose: 25.0 mg/kg/injection, schedule: Q01DX009 (ip), vehicle: saline with Tween-80
[8] = dose: 0.78 mg/kg/injection, schedule: Q01DX009 (ip), vehicle: saline
[9] = dose: 1.56 mg/kg/injection, schedule: Q01DX009 (ip), vehicle: saline
[10] = dose: 3.12 mg/kg/injection, schedule: Q01DX009 (ip), vehicle: saline
[11] = dose: 25.0 mg/kg/injection, schedule: Q01DX009 (ip), vehicle: saline
[12] = dose: 50.0 mg/kg/injection, schedule: Q01DX009 (ip), vehicle: saline with Tween-80
[13] = dose: 12.5 mg/kg/injection, schedule: Q01DX009 (ip), vehicle: Klucel (hydroxypropylcellulose) (HPC)

`CC(C)=CN1CCOCC1` was tested, and the T/C [1] was 94 % of control, the T/C [2] was 100 % of control and the T/C [3] was 94 % of control.

With `O=[N+]([O-])O.[Cu+2].[NH-]CC[NH-].[NH-]CC[NH-]` the T/C (dose: 3.0 mg/kg/injection, schedule: Q01DX009 (ip), vehicle: saline) was 116 % of control, the T/C (dose: 6.0 mg/kg/injection, schedule: Q01DX009 (ip), vehicle: saline) was 122 % of control and the T/C (dose: 12.0 mg/kg/injection, schedule: Q01DX009 (ip), vehicle: saline) was 102 % of control. The T/C [4] was 87 % of control.

`BrC1(Br)CC1(c1ccccc1)c1ccccc1` was tested, and the T/C (dose: 50.0 mg/kg/injection, schedule: Q04DX003 (ip), vehicle: Klucel (hydroxypropylcellulose) (HPC)) was 111 % of control, the T/C (dose: 100.0 mg/kg/injection, schedule: Q04DX003 (ip), vehicle: Klucel (hydroxypropylcellulose) (HPC)) was 105 % of control and the T/C (dose: 200.0 mg/kg/injection, schedule: Q04DX003 (ip), vehicle: Klucel (hydroxypropylcellulose) (HPC)) was 102 % of control.

For `O=C(c1cccc(C(=O)n2c3c(c4ccccc42)CCCC3)c1)n1c2c(c3ccccc31)CCCC2`, the T/C [5] was 94 % of control, the T/C [6] was 102 % of control and the T/C [7] was 100 % of control.

With `C1CC[N-]CC1.C1CC[N-]CC1.[Cl][Pt+2]([Cl])([Cl])[Cl]` the T/C [2] was 111 % of control, the T/C [3] was 120 % of control and the T/C (dose: 200.0 mg/kg/injection, schedule: Q01DX009 (ip), vehicle: Klucel (hydroxypropylcellulose) (HPC)) was 123 % of control.

With `CC(C)(C)c1cc(C[P+](c2ccccc2)(c2ccccc2)c2ccccc2)cc(C(C)(C)C)c1O` the T/C [8] was 111 % of control, the T/C [9] was 109 % of control and the T/C [10] was 104 % of control. For the same compound, the T/C (dose: 3.25 mg/kg/injection, schedule: Q04DX003 (ip), vehicle: saline) was 94 % of control and the T/C (dose: 4.6 mg/kg/injection, schedule: Q01DX009 (ip), vehicle: saline) was 86 % of control.

With `Cc1cc(Cl)ccc1NC(=O)Nc1ccccc1Cl` the T/C (dose: 18.8 mg/kg/injection, schedule: Q01DX009 (ip), vehicle: Klucel (hydroxypropylcellulose) (HPC)) was 104 % of control, the T/C (dose: 37.5 mg/kg/injection, schedule: Q01DX009 (ip), vehicle: Klucel (hydroxypropylcellulose) (HPC)) was 91 % of control and the T/C (dose: 75.0 mg/kg/injection, schedule: Q01DX009 (ip), vehicle: Klucel (hydroxypropylcellulose) (HPC)) was 94 % of control.

With `CCc1ccc(NC(=O)Nc2ccc(Cl)cc2)cc1` the T/C (dose: 100.0 mg/kg/injection, schedule: Q01DX009 (ip), vehicle: gum acacia) was 89 % of control, the T/C (dose: 200.0 mg/kg/injection, schedule: Q01DX009 (ip), vehicle: gum acacia) was 98 % of control and the T/C (dose: 400.0 mg/kg/injection, schedule: Q01DX009 (ip), vehicle: gum acacia) was 93 % of control.

With `CC(C)=CC(=O)OCC[N+](C)(C)C` the T/C [9] was 114 % of control, the T/C [10] was 112 % of control and the T/C (dose: 6.25 mg/kg/injection, schedule: Q01DX009 (ip), vehicle: saline) was 104 % of control. For the same compound, the T/C [4] was 102 % of control and the T/C [11] was 101 % of control.

For `CCCCCCC#CC(=O)OC`, the T/C [6] was 110 % of control, the T/C [7] was 93 % of control and the T/C [12] was 97 % of control and 100 % of control.

For `O=C1C=C(N2CC2)C(=O)C(N2CC2)=C1N1CC1`, the T/C (dose: 1.0 micrograms/kg/injection, schedule: Q01DX009 (ip), vehicle: saline) was 111 % of control, the T/C (dose: 3.0 micrograms/kg/injection, schedule: Q01DX009 (ip), vehicle: saline) was 109 % of control and the T/C (dose: 6.0 micrograms/kg/injection, schedule: Q01DX009 (ip), vehicle: saline) was 109 % of control. The T/C (dose: 12.0 micrograms/kg/injection, schedule: Q01DX009 (ip), vehicle: saline) was 118 % of control.

With `CCC1(O)CC2c3ccccc3CCN2CC1CC(C)C` (centres undefined) the T/C (dose: 0.19 mg/kg/injection, schedule: Q01DX009 (ip), vehicle: saline) was 104 % of control, the T/C (dose: 0.39 mg/kg/injection, schedule: Q01DX009 (ip), vehicle: saline) was 111 % of control and the T/C [8] was 109 % of control. The T/C [9] was 112 % of control and the T/C [10] was 112 % of control.

With `Cl/C=C(\Cl)CCl` the T/C [5] was 108 % of control and the T/C [6] was 90 % of control.

With `O=S1(=O)C=CCCC=C1` the T/C (dose: 6.25 mg/kg/injection, schedule: Q01DX009 (ip), vehicle: Klucel (hydroxypropylcellulose) (HPC)) was 102 % of control, the T/C [13] was 98 % of control and the T/C [1] was 95 % of control. For the same compound, the T/C [2] was 98 % of control and 102 % of control.

For `Cc1ccc(NC(=O)COc2ccc(Cl)cc2)c(C)c1`, the T/C (dose: 3.13 mg/kg/injection, schedule: Q01DX009 (ip), vehicle: saline with Tween-80) was 119 % of control, the T/C [5] was 107 % of control and the T/C [6] was 97 % of control. For the same compound, the T/C [7] was 95 % of control and the T/C [12] was 91 % of control.

For `COc1cc(C(=O)OC(C)CN2CCOCC2)cc(OC)c1OC` (centres undefined), the T/C (dose: 3.12 mg/kg/injection, schedule: Q04DX003 (ip), vehicle: saline) was 106 % of control, the T/C (dose: 6.25 mg/kg/injection, schedule: Q04DX003 (ip), vehicle: saline) was 111 % of control and the T/C [4] was 100 % of control. For the same compound, the T/C (dose: 12.5 mg/kg/injection, schedule: Q04DX003 (ip), vehicle: saline) was 106 % of control, the T/C [11] was 100 % of control and the T/C (dose: 25.0 mg/kg/injection, schedule: Q04DX003 (ip), vehicle: saline) was 105 % of control. The T/C (dose: 50.0 mg/kg/injection, schedule: Q01DX009 (ip), vehicle: saline) was 100 % of control, the T/C (dose: 50.0 mg/kg/injection, schedule: Q04DX003 (ip), vehicle: saline) was 102 % of control and the T/C (dose: 100.0 mg/kg/injection, schedule: Q01DX009 (ip), vehicle: saline) was 108 % of control. The T/C (dose: 100.0 mg/kg/injection, schedule: Q04DX003 (ip), vehicle: saline) was 98 % of control, the T/C (dose: 200.0 mg/kg/injection, schedule: Q01DX009 (ip), vehicle: saline) was 102 % of control and the T/C (dose: 200.0 mg/kg/injection, schedule: Q04DX003 (ip), vehicle: saline) was 118 % of control. The T/C (dose: 400.0 mg/kg/injection, schedule: Q04DX003 (ip), vehicle: saline) was 97 % of control.

For `C[C@H]1CCC/C=C/[C@@H]2C[C@H](O)C[C@H]2[C@H](O)/C=C/C(=O)O1`, the T/C (dose: 2.5 mg/kg/injection, schedule: Q01DX009 (ip), vehicle: Klucel (hydroxypropylcellulose) (HPC)) was 116 % of control, the T/C (dose: 5.0 mg/kg/injection, schedule: Q01DX009 (ip), vehicle: Klucel (hydroxypropylcellulose) (HPC)) was 104 % of control and the T/C (dose: 10.0 mg/kg/injection, schedule: Q01DX009 (ip), vehicle: Klucel (hydroxypropylcellulose) (HPC)) was 103 % of control.

With `O=CC(O)C(O)C(O)C(O)C(=O)O.[NH-]C1CCCCC1[NH-].[Pt+2]` (centres undefined) the T/C (dose: 0.2 mg/kg/injection, schedule: Q01DX009 (ip), vehicle: saline) was 105 % of control and the T/C [9] was 162 % of control.

`Cc1cccc(Nc2c(N)nc(N)nc2N)c1` was tested, and the T/C [13] was 101 % of control, the T/C [1] was 104 % of control and the T/C [2] was 106 % of control.

In the case of `CCO/C=C1\SC(=S)N(c2ccccc2C)C1=O`, the T/C [7] is reported as 92 % of control, the T/C [12] is reported as 90 % of control and the T/C (dose: 100.0 mg/kg/injection, schedule: Q01DX009 (ip), vehicle: saline with Tween-80) is reported as 91 % of control.

With `C=CC(CO)N1CC1` (centres undefined) the T/C (dose: 1.0 mg/kg/injection, schedule: Q01DX009 (ip), vehicle: other) was 119 % of control, the T/C (dose: 2.0 mg/kg/injection, schedule: Q01DX009 (ip), vehicle: other) was 116 % of control and the T/C (dose: 4.0 mg/kg/injection, schedule: Q01DX009 (ip), vehicle: other) was 111 % of control. For the same compound, the T/C (dose: 6.25 mg/kg/injection, schedule: Q04DX003 (ip), vehicle: other) was 100 % of control, the T/C (dose: 8.0 mg/kg/injection, schedule: Q01DX009 (ip), vehicle: other) was 113 % of control and the T/C (dose: 12.5 mg/kg/injection, schedule: Q04DX003 (ip), vehicle: other) was 100 % of control. The T/C (dose: 25.0 mg/kg/injection, schedule: Q04DX003 (ip), vehicle: other) was 96 % of control and the T/C (dose: 50.0 mg/kg/injection, schedule: Q04DX003 (ip), vehicle: other) was 109 % of control.

`[Cu+2].[NH-]C1(C(=O)O)CCCC1.[NH-]C1(C(=O)O)CCCC1` was tested, and the T/C (dose: 2.5 mg/kg/injection, schedule: Q01DX009 (ip), vehicle: saline with Tween-80) was 93 % of control, the T/C (dose: 5.0 mg/kg/injection, schedule: Q01DX009 (ip), vehicle: saline with Tween-80) was 93 % of control and the T/C (dose: 10.0 mg/kg/injection, schedule: Q01DX009 (ip), vehicle: saline with Tween-80) was 93 % of control.

With `NC(=O)C(Cc1ccccc1)NC(=O)C(Cc1ccccc1)NC(=O)C(Cc1ccccc1)NC(=O)OCc1ccccc1` (stereo not drawn) (Cbz-Phe-Phe-Phe-NH2; configuration not given here) the T/C (dose: 3.12 mg/kg/injection, schedule: Q01DX009 (ip), vehicle: saline with Tween-80) was 100 % of control, the T/C [5] was 89 % of control and the T/C [6] was 96 % of control. For the same compound, the T/C [7] was 91 % of control.
